A short description of series [1]: Appearance, flow and viscosity of (DMAPA) DDBS diluted with fatty nitrile. Format: physicochemical. From the text:
Dimethylaminopropylamine dodecylbenzene sulfonic acid (DMAPA-DDBS) is generally highly viscous. A low viscosity liquid sample of (DMAPA) DDBS was obtained by mixing 51.69 g of DDBS, 40 g tallow nitrile (fractionated), followed by slowly adding 8.31 g DMAPA.
A liquid sample of dimethylaminopropylamine (DMAPA) DDBS was obtained by mixing 43.08 g dodecylbenzene sulfonic (DDBS) acid, 25 g oleic nitrile, 25 g castor oil ethoxylate (10EO), followed by slowly adding 6.92 g DMAPA.

The nature of series [2]: Solubility of various pesticides in alkyl nitrile. It counts as physicochemical. An excerpt:
In Table 1, the designation of C14-18 represents the nitrile derived from tallow and C8-C16 represents the nitrile derived from coco. Note that the C14-C18 tallow nitrile corresponds to an R value of C13-C17 in Formula (I), because Formula (I) includes a carbon atom outside of the R group definition. Likewise, C8-C16 coco nitrile corresponds to an R value of C7-C15 in Formula (I). The C10 value in the first column of Table 1 corresponds to an R value of C9 in Formula (I) for the same reasons.

The mark [3] stands for this setting: <10 g in 100 g C14-C18 (tallow) nitrile.
Setting [4] is: in 100 g C10 nitrile, room temperature.
Setting [5] is: in 100 g C14-C18 (tallow) nitrile.
The mark [6] stands for this setting: 0.1 g in 5 g C14-C18 (tallow) nitrile.

For the molecule “Dimethylaminopropylamine dodecylbenzene sulfonic acid [(DMAPA) DDBS]”, the “appearance, flow and viscosity of sample” value was “clear, flowed at about 0° C., and had acceptable viscosity” in series [1] (43.08 g DDBS acid, 25 g oleic nitrile, 25 g castor oil ethoxylate (10EO), 6.92 g DMAPA); “clear, flowed freely at room temperature and had acceptable viscosity” in series [1] (51.69 g DDBS, 40 g tallow nitrile (fractionated), 8.31 g DMAPA); “flowed better at lower temperatures” in series [1] (oleic nitrile instead of tallow nitrile).

Consider `CON=C(C(=O)OC)c1ccccc1CON=C(C)c1cccc(C(F)(F)F)c1` [Trifloxystrobin], for which the “Result (solubility in alkyl nitrile)” value in series [2] (setting [3]) is “Dissolved”. For the same molecule, the “Wt, g (pesticide dissolved)” value was 14 g in series [2] (in 50 g C10 nitrile + 50 g rapeseed methylester (solvent), room temperature); 19 g in series [2] (setting [4]); less than 10 g in series [2] (setting [5]).

As for `CCOP(=S)(OCC)Oc1nc(Cl)c(Cl)cc1Cl` [Chlorpyrifos], in series [2] (44 g in 100 g C14-C18 (tallow) nitrile), the “Result (solubility in alkyl nitrile)” value is reported as “Dissolved”. In addition, the “Wt, g (pesticide dissolved)” value in series [2] (in 20 g C10 nitrile + 80 g Solvesso 100 solvent, room temperature) amounted to 102 g; in series [2] (in 20 g C10 nitrile + 80 g methyl ester solvent, room temperature) it was 87 g; in series [2] (in 30 g C10 nitrile + 70 g methyl ester solvent, room temperature) it was 100 g; in series [2] (in 35 g C10 nitrile + 65 g Solvesso 100 solvent, room temperature) it was 103 g; in series [2] (in 40 g C10 nitrile + 60 g methyl ester solvent, room temperature), 166 g; in series [2] (in 50 g C10 nitrile + 50 g Solvesso 100 solvent, room temperature) it was 102 g. Also, the entries for the “Wt, g (pesticide dissolved)” value in series [2] (setting [4]) and in series [2] (setting [5]) were 84 g and 44 g, respectively. The “amount the C10 nitrile can dissolve” value in series [2] (in C10 nitrile (Arneel 10D)) is “about 46%”.

`COc1cc(OC)nc(NC(=O)NS(=O)(=O)c2ncccc2C(=O)N(C)C)n1` [Nicosulfuron]: the “Result (solubility in alkyl nitrile)” value in series [2] (0.114 g (92.22%) in 1 g C14-C18 (tallow) nitrile) is recorded as “Suspension”.

With `O=C(O)CNCP(=O)(O)O` [Glyphosate acid], in series [2] (setting [6]), the “Result (solubility in alkyl nitrile)” value is recorded as “Solid at bottom”.

With `NC(N)=O` [Urea], the “Result (solubility in alkyl nitrile)” value in series [2] (0.26 g in 1 g C14-C18 (tallow) nitrile) is “Doesn't dissolve”. Moreover, the “solvency power of fatty nitrile towards the agrochemical” value in series [2] (fatty nitrile as solvent) is “very little solvency power”.

Pyritherin: the “Result (solubility in alkyl nitrile)” value in series [2] (3.15 g in 5 g C14-C18 (tallow) nitrile) is reported as “Clear”.

On to `CC(C)(C)C(O)(CCc1ccc(Cl)cc1)Cn1cncn1` (stereo not drawn) [Tebuconazole], for which the “Result (solubility in alkyl nitrile)” value is listed as “Hazy to clr” in series [2] (0.4 g in 5 g C14-C18 (tallow) nitrile) and “Dissolved” in series [2] (setting [3]). The “Wt, g (pesticide dissolved)” value in series [2] (setting [4]) and in series [2] (setting [5]) was less than 10 g each time.

For the molecule `CNC.O=C(O)COc1ccc(Cl)cc1Cl` [2,4-D DMA], the “Result (solubility in alkyl nitrile)” value in series [2] (setting [6]) is recorded as “Solid at bottom”.
